Reference: ChEMBL document CHEMBL5584328, “Integrating computational and experimental chemical biology revealed variable anticancer activities of phosphodiesterase isoenzyme 5 inhibitors (PDE5i) in lung cancer” (RSC Med Chem, 2024)
The source made the active and inactive calls. The calls are words filed in the database; no cut-off is given here.

What was measured:
A549 [1] = assay: Antiproliferative activity against human A549 cells measured after 24 hrs by MTT assay; format: functional, cell-based
A549 [2] = assay: Antiproliferative activity against human A549 cells measured after 48 hrs by MTT assay; format: functional, cell-based
A549 [3] = assay: Antiproliferative activity against human A549 cells measured after 72 hrs by MTT assay; format: functional, cell-based
NCI-H1299 [4] = assay: Antiproliferative activity against human NCI-H1299 cells measured after 24 hrs by MTT assay; format: functional, cell-based
NCI-H1299 [5] = assay: Antiproliferative activity against human NCI-H1299 cells measured after 48 hrs by MTT assay; format: functional, cell-based
NCI-H1299 [6] = assay: Antiproliferative activity against human NCI-H1299 cells measured after 72 hrs by MTT assay; format: functional, cell-based
NCI-H661 [7] = assay: Antiproliferative activity against human NCI-H661 cells measured after 24 hrs by MTT assay; format: functional, cell-based
NCI-H661 [8] = assay: Antiproliferative activity against human NCI-H661 cells measured after 48 hrs by MTT assay; format: functional, cell-based
NCI-H661 [9] = assay: Antiproliferative activity against human NCI-H661 cells measured after 72 hrs by MTT assay; format: functional, cell-based
A549 [10] = assay: Antiproliferative activity against human A549 cells by MTT assay; format: functional, cell-based; details: time 24-72 hrs, TDE = time-dependent effect
NCI-H1299 [11] = assay: Antiproliferative activity against human NCI-H1299 cells by MTT assay; format: functional, cell-based; details: time 24-72 hrs, TDE = time-dependent effect
NCI-H661 [12] = assay: Antiproliferative activity against human NCI-H661 cells by MTT assay; format: functional, cell-based; details: time 24-72 hrs, TDE = time-dependent effect
A549 [13] = assay: Potentiation of cisplatin-induced cytotoxicity against human A549 cells assessed as combination index at 1:5 ratio of cisplatin to compound measured after 48 hrs by MTT assay; format: functional
NCI-H1299 [14] = assay: Potentiation of cisplatin-induced cytotoxicity against human NCI-H1299 cells assessed as combination index at 1:4 ratio of cisplatin to compound measured after 48 hrs by MTT assay; format: functional
NCI-H661 [15] = assay: Potentiation of cisplatin-induced cytotoxicity against human NCI-H661 cells assessed as combination index at 1:4 ratio of cisplatin to compound measured after 48 hrs by MTT assay; format: functional
A549 [16] = assay: Potentiation of cisplatin-induced cytotoxicity against human A549 cells assessed as fold reduction in cisplatin IC50 at 1:5 ratio of cisplatin to compound measured after 48 hrs by MTT assay relative to cisplatin alone; format: functional
NCI-H1299 [17] = assay: Potentiation of cisplatin-induced cytotoxicity against human NCI-H1299 cells assessed as fold reduction in cisplatin IC50 at 1:4 ratio of cisplatin to compound measured after 48 hrs by MTT assay relative to cisplatin alone; format: functional
NCI-H661 [18] = assay: Potentiation of cisplatin-induced cytotoxicity against human NCI-H661 cells assessed as fold reduction in cisplatin IC50 at 1:4 ratio of cisplatin to compound measured after 48 hrs by MTT assay relative to cisplatin alone; format: functional
A549 [19] = assay: Potentiation of raloxifene-induced cytotoxicity against human A549 cells assessed as combination index at 1:3 ratio of raloxifene to compound measured after 48 hrs by MTT assay; format: functional
NCI-H1299 [20] = assay: Potentiation of raloxifene-induced cytotoxicity against human NCI-H1299 cells assessed as combination index at 1:2 ratio of raloxifene to compound measured after 48 hrs by MTT assay; format: functional
NCI-H661 [21] = assay: Potentiation of raloxifene-induced cytotoxicity against human NCI-H661 cells assessed as combination index at 1:2 ratio of raloxifene to compound measured after 48 hrs by MTT assay; format: functional
A549 [22] = assay: Potentiation of raloxifene-induced cytotoxicity against human A549 cells assessed as fold reduction in raloxifene IC50 at 1:3 ratio of raloxifene to compound measured after 48 hrs by MTT assay relative to raloxifene alone; format: functional
NCI-H1299 [23] = assay: Potentiation of raloxifene-induced cytotoxicity against human NCI-H1299 cells assessed as fold reduction in raloxifene IC50 at 1:2 ratio of raloxifene to compound measured after 48 hrs by MTT assay relative to raloxifene alone; format: functional
NCI-H661 [24] = assay: Potentiation of raloxifene-induced cytotoxicity against human NCI-H661 cells assessed as fold reduction in raloxifene IC50 at 1:2 ratio of raloxifene to compound measured after 48 hrs by MTT assay relative to raloxifene alone; format: functional
NCI-H1299 [25] = assay: Antimigratory activity against human NCI-H1299 cells assessed as reduction in wound closure measured after 24 hrs by wound healing assay; format: functional, cell-based
A549 [26] = assay: Inhibition of colony formation in human A549 cells assessed as reduction in number of colonies at 64 to 128 uM measured after 48 hrs by colony formation assay; format: functional, cell-based; details: dose 64-128 µM
A549 [27] = assay: Inhibition of colony formation in human A549 cells assessed as reduction in size of colonies at 64 to 128 uM measured after 48 hrs by colony formation assay; format: functional, cell-based; details: dose 64-128 µM
A549 [28] = assay: Induction of apoptosis in human A549 cells assessed as increase in apoptotic cells at 256 uM measured after 48 hrs by Annexin V-FITC/PI staining based flow cytometry relative to control; format: functional
A549 [29] = assay: Cell cycle arrest in human A549 cells assessed as increase in cell population at G2 phase at 64 uM measured after 48 hrs by propidium iodide staining based flow cytometry; format: functional
A549 [30] = assay: Reduction in PDE5 gene expression in human A549 cells at 0.1 IC50 measured after 48 hrs by qRT-PCR analysis; format: functional, cell-based
A549 [31] = assay: Reduction in Bcl-2 gene expression in human A549 cells at 0.1 IC50 measured after 48 hrs by qRT-PCR analysis; format: functional, cell-based
A549 [32] = assay: Reduction in PDE5 protein expression in human A549 cells at 0.25 to 0.5 IC50 measured after 48 hrs by Western blot analysis; format: functional, cell-based

CCCOc1ccc(S(=O)(=O)NCCC2CCCN2C)cc1-c1nc2c(CCC)nn(C)c2c(=O)[nH]1 (stereo unspecified) [UDENAFIL]
Activity (A549 [1]): Dose-Dependent Effect
IC50 (A549 [1]; A549, 24 h): 150 µM
Activity (A549 [2]): Dose-Dependent Effect
IC50 (A549 [2]; A549, 48 h): 128 µM
Activity (A549 [3]): Dose-Dependent Effect
IC50 (A549 [3]; A549, 72 h): 82.8 µM
Activity (NCI-H1299 [4]): Dose-Dependent Effect
IC50 (NCI-H1299 [4]; NCI-H1299, 24 h): 76.1 µM
Activity (NCI-H1299 [5]): Dose-Dependent Effect
IC50 (NCI-H1299 [5]; NCI-H1299, 48 h): 86.3 µM
Activity (NCI-H1299 [6]): Dose-Dependent Effect
IC50 (NCI-H1299 [6]; NCI-H1299, 72 h): 70.5 µM
Activity (NCI-H661 [7]): Dose-Dependent Effect
IC50 (NCI-H661 [7]; NCI-H661, 24 h): 177 µM
Activity (NCI-H661 [8]): Dose-Dependent Effect
IC50 (NCI-H661 [8]; NCI-H661, 48 h): 80.4 µM
Activity (NCI-H661 [9]): Dose-Dependent Effect
IC50 (NCI-H661 [9]; NCI-H661, 72 h): 98.8 µM
Activity (A549 [10]): Tde
Activity (NCI-H1299 [11]): Tde
Activity (NCI-H661 [12]): Tde
CI (A549 [13]): 0.95
CI (NCI-H1299 [14]): 0.82
CI (NCI-H661 [15]): 0.83
fold change (FC) (A549 [16]): 1.7
fold change (FC) (NCI-H1299 [17]): 2.4
fold change (FC) (NCI-H661 [18]): 2.1
CI (A549 [19]): 0.98
CI (NCI-H1299 [20]): 0.88
CI (NCI-H661 [21]): 0.8
fold change (FC) (A549 [22]): 1.6
fold change (FC) (NCI-H1299 [23]): 2.4
fold change (FC) (NCI-H661 [24]): 2.3
Activity (NCI-H1299 [25]): Dose-Dependent Effect
inhibition (A549 [26]): Active
inhibition (A549 [27]): Active
Activity (A549 [28]): 55.9%
Activity (A549 [29]): Active
Activity (A549 [30]): Active
Activity (A549 [31]): Active
Activity (A549 [32]): Dose-Dependent Effect
